Patent US11964935B2, “Gingerol derivative having inhibitory activity against biofilm formation and pharmaceutical composition comprising same as effective ingredient for preventing or treating biofilm-caused infection symptom” (Korea University Research and Business Foundation, Sejong …, priority 2017, dated 2024)
Entries after “also recorded” stand apart in the source; their conditions may differ.

Legend:
P. aeruginosa PA14 [1] = experiment: Dynamic biofilm formation assay (drip-flow reactor, CLSM); format: cell-based, Pseudomonas aeruginosa; conditions: for Biofilm thickness / Biofilm volume: 10 μM compound, Comstat2; for Biofilm thickness / Biofilm volume / Biofilm formation in CLSM images, in words: 48 h drip-flow reactor; for Biofilm formation in CLSM images, in words: compared with DMSO or compound 1c
Procedure: Glass slides were dipped into a Petri dish containing 2 mL of a P. aeruginosa PA14 suspension (OD595=1.0) and 18 mL of the AB medium, followed by incubation at 37° C. for 24 h to let the cells adhere to the slides. The slides were then inserted into a drip-flow reactor (DFR-110, BioSurface, Mont., USA). The AB medium with either a positive control or the synthesized compound (0-10 μM) was fed into the reactor continuously via a peristaltic pump (Masterflex C/L tubing pumps, Cole-Parmer, IL, USA) at 0.3 mL/min After operation of the reactor at 37° C. for 48 h, the cells on the slides were washed two times with PBS. The biofilm cells were stained with fluorescein isothiocyanate-labeled type IV ConA (Sigma-Aldrich) and SYPRO Ruby (Ruby, Invitrogen, Carlsbad, CA, USA) for 15 min, respectively. CLSM images were captured via a 20× objective lens (W N-Achroplan 20×/0.5 W [DIC] M27) with green fluorescence (ConA, excitation wavelength of 490 nm, emission wavelength of 525 nm) and red fluorescence (Ruby, excitation wavelength of 470 nm, emission wavelength of 618 nm) and were analyzed in the Zen 2011 software (Carl Zeiss, Jena, Germany). For quantification, biofilm volume (μm^3/μm^2) and average thickness (μm) were measured by means of Comstat2 in ImageJ.
A dynamic biofilm formation assay of compounds 41 and 42 was performed in a drip-flow reactor. Compound 1c served as a positive control, and DMSO served as a negative control. After 48 h drip-flow reactor operation, the biofilm was stained with Ruby and concanavalin A (ConA). Ruby (red) is a reagent for staining protein, and ConA (green) is for carbohydrate of biofilm. As shown in (A) of FIG. 8, the biofilm in the presence of DMSO formed with typical mushroom-like morphology. […] Biofilm volume and thickness with compound 41 were the lowest among the three groups (Table 1).

P. aeruginosa = conditions: cited from earlier work
P. aeruginosa PA14 [2] = experiment: Static biofilm formation assay; format: cell-based, Pseudomonas aeruginosa
Procedure: Overnight culture of P. aeruginosa PA14 (OD595=1.0) was diluted (1:20) with the AB medium (300 mM NaCl, 50 mM MgSO4, 0.2% vitamin-free casamino acids, 10 mM potassium phosphate, 1 mM L-arginine, and 1% glucose, pH 7.5) (1:20) containing with either positive controls or synthesized compounds (0-100 μM). The dilutions were aliquoted into borosilicate bottles, and the bottles were incubated at 37° C. for 24 h without agitation. After that, OD595 of the cell suspension was measured on the VICTOR ×5 multimode plate reader. The biofilm cells attached to the bottle were washed two times with phosphate buffered saline (PBS; 137 mM NaCl, 2.7 mM KCl, 10 mM Na2HPO4, and 2 mM KH2PO4, pH 7.2) and stained with 0.1% crystal violet for […] Next, the stained biofilm cells were eluted with 100% ethyl alcohol, and OD540 was measured on the VICTOR ×5 multimode plate reader. The biofilm formation was quantified by dividing OD540 with OD595.

P. aeruginosa PA14 [3] = experiment: Growth inhibition assay; format: cell-based, Pseudomonas aeruginosa; conditions: 100 μM, 24 h
Procedure: A 5% dilution of overnight culture of P. aeruginosa PA14 (OD595=1.0) containing either a positive control or the synthesized compound (0-100 μM) was inoculated into wells of a 96-well polystyrene microtiter plate (Sigma-Aldrich). The plate was incubated at 37° C. for 24 h. OD595 of the suspension culture was measured on the VICTOR ×5 multimode plate reader.

LasR [4] = target: T1, LasR (Pseudomonas aeruginosa, UniProt P25084); experiment: LasR reporter gene assay (E. coli reporter strain, luminescence, competition with OdDHL); format: cell-based; conditions: compound 1 μM or 10 μM in the presence of 1 μM OdDHL (compound 1a)
T1 construct: expressed in transfected cells; host or cells: E. coli DH5α (printed DHSα) co-transformed with pJN105L and pSC11
T1 sequence (P25084 whole entry): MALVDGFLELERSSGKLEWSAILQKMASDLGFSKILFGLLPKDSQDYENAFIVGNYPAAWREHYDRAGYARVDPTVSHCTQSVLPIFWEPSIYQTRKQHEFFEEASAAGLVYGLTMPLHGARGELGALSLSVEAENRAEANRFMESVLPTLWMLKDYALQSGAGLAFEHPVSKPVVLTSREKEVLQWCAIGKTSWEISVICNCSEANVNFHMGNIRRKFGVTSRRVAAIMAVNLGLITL
Procedure: This assay was conducted by modifying a previously reported method. E. coli DHSα co-transformed with two plasmids, pJN105L (LasR expression plasmid) and pSC11 (lasI::lacZ fusion plasmid), was used as a bioassay reporter strain. Overnight culture of the reporter strain with 10 μg/mL gentamicin and 50 μg/mL ampicillin was diluted in the Luria-Bertani (LB) medium (1:100). Then, the reporter strain (optical density at 595 nm [OD595] was 0.3) mixed with either a positive control or the synthesized compound was incubated with OdDHL (Sigma-Aldrich, St. Louis, MO., USA) and 0.4% arabinose (Sigma-Aldrich). After incubation at 37° C. for 1.5 h, OD595 was measured on a VICTOR ×5 multimode plate reader (PerkinElmer, Waltham, Mass., USA). The β-galactosidase activity was determined using a Tropix plus kit (Applied Biosystems, USA), and luminescence was measured on the VICTOR ×5 multimode plate reader. RLU ratio was quantified by dividing luminescence with OD595.
LasR-binding affinity of the synthesized gingerols (compounds 4-10) with various alkyl chain lengths was determined by measuring luminescence of an E. coli reporter strain. The reporter strain carried two plasmids, pJN105L (LasR expression plasmid) (Lee, J. H.; Lequette, Y.; Greenberg, E. P. Activity of purified QscR, a Pseudomonas aeruginosa orphan quorum-sensing transcription factor. Mol. Microbiol. 2006, 59, 602609.) and pSC11 (las1::lacZ fusion plasmid) (Chugani, S. A.; Whiteley, M.; Lee, K. M.; D'Argenio, D.; Manoil, C.; Greenberg, E. P. QscR, a modulator of quorum-sensing signal synthesis and virulence in Pseudomonas aeruginosa. Proc. Natl. Acad. Sci. U.S.A. 2001, 98, 27522757.), which enabled assay of competitive binding of OdDHL with each gingerol derivative 4-10. Antagonistic activities of the synthesized compounds at 1 μM or 10 μM were determined by measuring luminescence in the presence of 1 μM OdDHL (compound 1a) and presented as relative luminescence unit (RLU) ratio. Three compounds (compounds 1b, 1c, and 1d) served as positive controls. […] Just as the LasR inhibition, inhibition of biofilm formation also strengthened as the carbon chain was extended at 10 μM ((B) of FIG. 3). However, inhibition of biofilm formation decreased with 9-gingerol (compound 9) and 10-gingerol (compound 10) at 100 μM ((C) of FIG. 3) because of increased bacterial growth inhibition. […] This effect may be due to the fact that compounds 9 and 10 act as a surfactant, which inhibits bacterial growth. Agonistic activities of compounds 4-10 in an E. coli reporter assay system in the absence of OdDHL were next examined.

LasR [5] = target: T1, LasR; experiment: as above; format: cell-based; conditions: compound 1 μM; compound 1a 0, 0.1, 1, 10 and 100 μM

Row | SMILES | Biofilm thickness (P. aeruginosa PA14 [1]; CLSM) | Biofilm volume (P. aeruginosa PA14 [1]; CLSM) | Biofilm formation in CLSM images, in words (P. aeruginosa PA14 [1]; 10 μM) | Bacterial growth inhibition (P. aeruginosa PA14 [3]) | other results
1 | CCCCCCCC(O)CC(=O)CCc1ccc(O)c(OC)c1 [Compound 1c, (S)-8-gingerol, reference compound] | 17.0 ± 0.4 μm | 17.0 ± 0.4 μm^3/μm^2 | relatively thin and sparse | – | –
2 | CCCCC[C@H](O)CC(=O)CCc1ccc(O)c(OC)c1 [Compound 1b, (S)-6-gingerol] | – | – | – | – | Biofilm formation and production of virulence factors (previously demonstrated) (P. aeruginosa; competition with OdDHL for LasR): reduces biofilm formation and production of virulence factors
3 | CCCCCCCCCC(O)CC(=O)CCc1ccc(O)c(OC)c1 (stereo not drawn) [Compound 10, 5-Hydroxy-1-(4-hydroxy-3-methoxyphenyl)tetradecan-3-one] | – | – | – | inhibited bacterial growth significantly | Inhibition of biofilm formation at 100 μM, in words (P. aeruginosa PA14 [2]; 24 h, static): decreased
4 | CCCCCCCCC(O)CC(=O)CCc1ccc(O)c(OC)c1 (stereo not drawn) [Compound 9, 5 -Hydroxy-1-(4-hydroxy-3-methoxyphenyl)tridecan-3-one] | – | – | – | inhibited bacterial growth significantly | Inhibition of biofilm formation at 100 μM, in words (P. aeruginosa PA14 [2]; 24 h, static): decreased
5 | CCCCCCC[C@@H](O)CC(=O)/C=C/c1ccc(O)c(OC)c1 [Compound 41, (R,E)-5-Hydroxy-1-(4-hydroxy-3-methoxyphenyl)dodec-1-en-3-one] | 10.3 ± 0.1 μm | 7.4 ± 0.2 μm^3/μm^2 | relatively thin and sparse; also recorded: inhibited biofilm formation more effectively than compound 1c did | bacterial growth inhibition was not observed | LasR-antagonistic activity / LasR-binding affinity (RLU ratio), in words (LasR [4]): stronger LasR-binding affinity; Inhibition of biofilm formation, in words (P. aeruginosa PA14 [2]; 10 μM, 24 h, static): greater inhibition of biofilm formation; Volume of carbohydrates in biofilm compared to the other groups (P. aeruginosa PA14 [1]; ConA staining, CLSM, 10 μM): 47-74%; Volume of proteins in biofilm compared to the other groups (P. aeruginosa PA14 [1]; Ruby staining, CLSM, 10 μM): 23-56%; Binding reversibility to LasR (LasR [5]): binds reversibly to LasR
6 | CCCCCCC[C@@H](O)CC(=O)CCc1ccc(O)c(OC)c1 [Compound 42, (R)-5-Hydroxy-1-(4-hydroxy-3-methoxyphenyl)dodecan-3-one] | 13.9 ± 0.1 μm | 9.7 ± 1.1 μm^3/μm^2 | relatively thin and sparse; also recorded: inhibited biofilm formation more effectively than compound 1c did | bacterial growth inhibition was not observed | LasR-antagonistic activity / LasR-binding affinity (RLU ratio), in words (LasR [4]): much stronger LasR-binding affinity than compound 1c; Biofilm formation relative to compound 1c (P. aeruginosa PA14 [2]; static assay, 10 μM, effect of compound 1c set to 100%): 72%
7 | O=C1C=C(Br)/C(=C/Br)O1 [Compound 1d, (Z)-4-bromo-5-(bromomethylene)furan-2(5H)-one] | – | – | – | – | Expression of virulence factors (prior report) (P. aeruginosa; interference with P. aeruginosa QS systems): inhibits the expression of virulence factors
